# Measured values as given in patent publication US20230075368A1, “IDENTIFICATION OF AN EGFR-BIN3 PATHWAY THAT ACTIVELY SUPPRESSES INVASION AND REDUCES TUMOR SIZE IN GLIOBLASTOMA” (The United States Govemment as represented by the …, priority 2020, published 2023).
# Assays:
# GBM12 = experiment: Cignal 45-Pathway Reporter Array; format: cell-based, human; conditions: tofacitinib 1 μM, 24 hours
# [1] = tested on: orthotopic glioblastoma tumors (Mayo PDXs); experiment: Orthotopic glioblastoma xenotransplant model treated with tofacitinib; format: in vivo, mice
# Procedure: 4 to 6 weeks old female athymic nude mice were purchased from Charles River Laboratories. Mayo PDXs were injected into the right corpus striatum of the brains of 6-8 week-old nude mice using a stereotactic frame. […] Kaplan-Maier survival curves were calculated using GraphPad Prism 7.0 software. Alzet Osmotic pumps were installed for brain delivery of EGF or vehicle in tumor bearing mice. To monitor the mice with orthotropic xenografts, MRI was performed at the Mouse MRI Core, Advanced Imaging Research Center, at UT Southwestern.
# Knockdown efficiency of HB-EGF in GBM39 control shRNA (GBM39shCtrl) and HB-EGF shRNA (GBM39shHB-EGF_1, GBM39shHB-EGF_2) clones was confirmed by ELISA (FIG. 21I). […] The Western blot images are representative of three independent biological replicates. Actin served as loading control. Scale bars: […]. Data are represented as mean±SEM from three independent experiments. ***P<0.001, […], n.s. not significant, unpaired two-tailed t-test.
# betacellulin = experiment: ELISA for BTC in supernatants; format: cell-based, human; conditions: tofacitinib 1 μM, 72 hours; GBM12 and GBM6
# Procedure: Similar experiments were performed in GBM6 (FIG. 20D). […] Similar experiments were performed in GBM6 (FIG. 20F). […] The Western blot images are representative of three independent biological replicates. Actin served as loading control. Data are represented as mean±SEM from three independent experiments. * P<0.05, **P<0.01, *[…], unpaired two-tailed t-test.
# DOCK7 = experiment: GEF activity of DOCK7 (Cdc42 G15A agarose pull down); format: cell-based, human; conditions: EGF, 24 hours; GBM12 and GBM6
# Procedure: To measure GEF activity of DOCK7, cell lysates were incubated with 40 μl Cdc42 G15A agarose beads (ab211185, Abcam) at 4° C. for 1 hour. The agarose beads were then washed boiled and the supernatants were used to immunoblot with DOCK7 antibody to determine levels of active DOCK7.
# BIN3 promoter = experiment: ChIP assay of EGR1 occupancy; format: cell-based, human; conditions: EGF, 24 hours; GBM12 and GBM6
# Procedure: Chromatin immunoprecipitation (ChIP) assays were performed using a ChIP assay kit (Upstate Biotechnology, Lake Placid, N.Y., USA). Cells were treated with or without EGF for the indicated time points or transfected with indicated vectors for 48 hours followed by cell fixation, lysis, chromatin shearing, antibody incubation and washing according to the manufacturer's protocol. ChIP grade anti-EGR1 (4153) or anti-Nanog antibody (5232) antibody from Cell Signaling Technology (Danvers, Mass.) was used to selectively precipitate the corresponding protein-DNA complex. RT-PCR was performed using ViiA 7 Real-Time PCR System (Applied Biosystems) to measure the relative amounts of ChIP DNA and results were quantified relative to inputs. The data are expressed as percentage of input. Following are primer sets: BIN3_Forward: 5′-[…]-3′ (SEQ ID NO:1); BIN3_Reverse: 5′-[…]-3′ (SEQ ID NO:2); EMP1_Forward: 5′-[…]-3′ (SEQ ID NO:3); EMP1_Reverse: 5′-[…]-3′ (SEQ ID NO:4).
# Referring to FIG. 8A-D, EGF induces EGR1 activity and enrichment on the BIN3 promoter. […] Cells were transiently transfected with EGR1 firefly luciferase reporter vector and Renilla luciferase vector for 48 hours, EGF was added for additional 2 or 24 hours prior to measuring luciferase activity. […] Cells were treated with or without EGF for 24 hours. ChIP assay was performed as described elsewhere herein. IgG was used as negative control. […]
# Met = experiment: Western blot of pMet and total Met; format: cell-based, human; conditions: HGF 20 ng/ml; GBM12 and GBM6
# Procedure: Whole protein extracts from cells or tumor tissues were analyzed by western blot as previously described (Altieri et al. (2015) Surg. Technol. Int 27: 297-302). Mayo PDX cells were serum starved overnight. Following treatment for specific time, cells were harvested and lysed. The human glioblastoma tissues were ground in liquid nitrogen and then were lysed. EGFR (06-847) antibody was from Millipore. DOCK7 was from Proteintech (Rosemont, Ill.). pEGFR (2236), STAT3 (12640), pSTAT3 (9145), cdc42(4376), and RhoA (4695) antibodies were from Cell Signaling Technology (Danvers, Mass.). TGFα antibody was from R&D system. BIN3 (sc-514396) and (3-Actin (sc-47778) were from Santa Cruz Biotechnology (Dallas, Tex.).
# Referring to FIG. 11A-E, HGF induces invasion in GBM12 and GBM6. […] Cells were seeded on Matrigel coated inserts for 24 hours in the absence or presence of HGF (20 ng/ml). A Western blot analysis of DOCK7 antibody immunoprecipitated extracts from GBM12 and GBM6 treated with HGF for 24 hours (20 ng/ml) is shown in FIG. 11C. A Western blot showing GTP-bound RhoA (RhoA-GTP) and total RhoA levels after HGF treatment for 24 hours in GBM12 and GBM6 is shown in FIG. 11D. A Western blot showing CDC42-GTP and total CDC42 levels after HGF treatment (20 ng/ml) for 24 hours in GBM12 and GBM6. The Western blot images are representative of three independent biological replicates. […]
# [2] = GBM12V tumors, tofacitinib 50 mg/kg, oral gavage
# [3] = orthotopic GBM39 with HBEGF silenced, tofacitinib treated
compound,measurement,setting,value
C[C@@H]1CCN(C(=O)CC#N)C[C@@H]1N(C)c1ncnc2[nH]ccc12 [tofacitinib],transcription factor activity,GBM12,upregulates multiple transcription factors
same,survival benefit,"[1]; GBM12TGFα tumors, tofacitinib 50 mg/kg, oral gavage",no additional benefit
same,survival,[1]; [2],significant improvement in survival
same,"tumor invasion (H&E, SMI-31)",[1]; [2],decreased invasion
same,infiltration of surrounding normal tissue,"[1]; GBM12 or GBM6 orthotopic model, 40 mg/kg/day for 3 weeks",do not infiltrate the surrounding normal tissue
same,survival,"[1]; GBM12 or GBM6 orthotopic model, 40 mg/kg/day for 3 weeks, from one week after intracranial injection",prolong survival
same,responsiveness of orthotopic tumors,[1]; GBM39 with HBEGF silenced vs. controls,more responsive
same,survival,[1]; [3],improved
same,tumor invasiveness,[1]; [3],less invasive
same,upregulation of betacellulin,betacellulin,not found
EGF: Recombinant human EGF (AF-100) from Peprotech; EGFR ligand,DOCK7 activity,DOCK7,decreased activity
same,EGR1 occupancy of BIN3 promoter,BIN3 promoter,occupies the BIN3 promoter
HGF: the ligand for Met,Met phosphorylation,Met,increased
